Laboratory results as given in the supplement of paper PMC10307832.

Key:
Assay in all cases: relative viability (nuclei count vs DMSO), 5 days (fraction); higher = more cells survive
[1] = compound: C1/C(=C\C2=CC=CS2)/C(=O)/C(=C/C3=CC=CS3)/C1 + C[C@@H](Oc1cc(-c2cnn(C3CCNCC3)c2)cnc1N)c1c(Cl)ccc(F)c1Cl [Crizotinib] (partner 1 µM)
Outline: (§1)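 A single step with final 0.05% Triton X-100, 1% formaldehyde and 1 ug/ml Hoechst fixed the cells and stained nuclei 5 days after treatment. Lung cancer cell lines in 1536-well plates had been treated by pin tool the day after seeding with one drug alone or a fixed anchor-drug dose plus five library-drug doses (not always all listed) in √10 steps, and nuclei were counted on 4× images. Relative viability is the ratio of nuclei in treated wells to nuclei in vehicle wells, taken as the median of duplicate plates.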

[2] = compound: C[C@]12O[C@H](C[C@]1(O)CO)n1c3ccccc3c3c4c(c5c6ccccc6n2c5c31)CNC4=O [Lestaurtinib] + CC(=O)c1c(C)c2cnc(Nc3ccc(N4CCNCC4)cn3)nc2n(C2CCCC2)c1=O [Palbociclib] (partner 0.5 µM)
Outline: as §1

[3] = compound: C[C@]12O[C@H](C[C@]1(O)CO)n1c3ccccc3c3c4c(c5c6ccccc6n2c5c31)CNC4=O [Lestaurtinib] + COc1cccc2cc(-c3nc([C@H]4CC[C@H](C(=O)O)CC4)n4ncnc(N)c34)[nH]c12 [OSI-027] (partner 0.5 µM)
Outline: as §1

[4] = compound: C[C@]12O[C@H](C[C@]1(O)CO)n1c3ccccc3c3c4c(c5c6ccccc6n2c5c31)CNC4=O [Lestaurtinib] + Nc1nc2[nH]cc(CCc3ccc(C(=O)N[C@@H](CCC(=O)O)C(=O)O)cc3)c2c(=O)[nH]1 [Pemetrexed] (partner 0.2 µM)
Outline: as §1

UMC-11
relative viability ([1]; first compound 0.2 µM): 0.62
relative viability ([1]; first compound 0.6325 µM): 0.685
relative viability ([1]; first compound 2 µM): 0.687
relative viability ([1]; first compound 20 µM): 0.571
relative viability ([2]; first compound 0.005 µM): 0.344
relative viability ([2]; first compound 0.01581 µM): 0.294
relative viability ([2]; first compound 0.05 µM): 0.33
relative viability ([2]; first compound 0.1581 µM): 0.215
relative viability ([2]; first compound 0.5 µM): 0.198
relative viability ([3]; first compound 0.005 µM): 0.48
relative viability ([3]; first compound 0.01581 µM): 0.385
relative viability ([3]; first compound 0.05 µM): 0.293
relative viability ([3]; first compound 0.1581 µM): 0.283
relative viability ([3]; first compound 0.5 µM): 0.177
relative viability ([4]; first compound 0.005 µM): 0.923
relative viability ([4]; first compound 0.01581 µM): 0.859
relative viability ([4]; first compound 0.05 µM): 0.436
relative viability ([4]; first compound 0.1581 µM): 0.256
relative viability ([4]; first compound 0.5 µM): 0.176
